Experimental data taken from US20240409534A1, “CRYSTAL FORM OF METHYLPYRAZOLE-SUBSTITUTED PYRIDOIMIDAZOLE COMPOUND AND PREPARATION METHOD THEREFOR” (priority 2021, published 2024).

Assays:
[1] = Stability test (high temperature, high humidity, light, accelerated, long-term); assay type: physicochemical
Description: For tests under high temperature, high humidity and light conditions, samples were put into an open clean weighing bottle, spread into a thin layer of 5 mm or less, and 3 samples (1.1 g/sample) were weighed in parallel at each condition time point. The prepared samples were placed under each condition, and sampled for analysis at each time point.
For accelerated stability and long-term stability tests, samples were packed into a double-layer pharmaceutical low-density polyethylene bag. Each layer of the pharmaceutical low-density polyethylene bag was sealed with buckles, and then the double-layer low-density polyethylene bag was heat-sealed in an aluminum foil bag. 6 samples (1.1 g/sample) were weighed in parallel at each condition time point. The prepared samples were placed under each condition, and sampled for analysis at each time point.

Ba/F3-TEL-FLT1 (VEGFR1) = assay: In vitro proliferation of BaF3 cell line, Ba/F3-TEL-FLT1; assay type: cell-based
Experimental: The mother solution was prepared into a total of 9 concentration gradients (10.0000 mM, 2.5000 mM, 0.6250 mM, 0.1563 mM, 0.0391 mM, 0.0098 mM, 0.0024 mM, 0.0006 mM and 0.0002 mM) in a 4-fold dilution and stored in a 96-well plate (Beaver, Suzhou), while the same volume of DMSO solvent was used as a negative control. • 1. Cell suspension in logarithmic growth phase was taken and inoculated in a white 96-well cell culture plate (Corning 3917, NY, USA) with a volume of 95 μL per well (2000 cells/well). • 2. Diluted medium-compound mixture was added in a volume of 5 μL per well, respectively, and the final concentration of DMSO in Ba/F3-TEL-FLT1 (VEGFR1), Ba/F3-TEL-FLT4 (VEGFR3) and Ba/F3-TEL-VEGFR2 cells was 0.1%.
• 3. The plate was incubated in a 37° C., 5% CO2 incubator for 72 h. • 4. The proliferation inhibitory activity and data analysis of the compound by CellTiter-Glo method were the same as in Experimental embodiment 1.

[2] = Accelerated stability test (40° C./relative humidity: 75%), Day 0
[3] = Accelerated stability test (40° C./relative humidity: 75%), Month 1
[4] = Accelerated stability test (40° C./relative humidity: 75%), Month 2
[5] = Accelerated stability test (40° C./relative humidity: 75%), Month 3
[6] = Accelerated stability test (40° C./relative humidity: 75%), Month 6
[7] = High humidity (25° C./relative humidity: 92.5%, open), Day 5
[8] = High humidity (25° C./relative humidity: 92.5%, open), Day 10
[9] = High humidity (25° C./relative humidity: 92.5%, open), Day 30
[10] = High temperature (60° C., open), Day 5
[11] = High temperature (60° C., open), Day 10
[12] = High temperature (60° C., open), Day 30
[13] = Light (Total illumination: 1.2 × 10^6 Lux · hr/NUV: 200 w · hr/m^2, open), Day 5
[14] = Light (Total illumination: 1.2 × 10^6 Lux · hr/NUV: 200 w · hr/m^2, open), Day 10
[15] = Long-term stability test (25° C./relative humidity: 60%), Day 0
[16] = Long-term stability test (25° C./relative humidity: 60%), Month 3
[17] = Long-term stability test (25° C./relative humidity: 60%), Month 6
[18] = Long-term stability test (25° C./relative humidity: 60%), Month 9

SMILES: CS(=O)(=O)O.Cn1cc(-c2ccn3c(-c4cc(NS(C)(=O)=O)nc(-c5ccc(F)cc5F)c4)cnc3c2)cn1
- Content [1, 2]: 97.9%
- Crystal form (XRPD) [1, 2]: Crystal form A
- Total impurities [1, 2]: 1.2%
- Content [1, 3]: 98.0%
- Crystal form (XRPD) [1, 3]: Crystal form A
- Total impurities [1, 3]: 1.3%
- Content [1, 4]: 97.6%
- Crystal form (XRPD) [1, 4]: Crystal form A
- Total impurities [1, 4]: 1.2%
- Content [1, 5]: 98.0%
- Crystal form (XRPD) [1, 5]: Crystal form A
- Total impurities [1, 5]: 1.2%
- Content [1, 6]: 98.5%
- Crystal form (XRPD) [1, 6]: Crystal form A
- Total impurities [1, 6]: 1.2%
- Content ([1]; Day 0): 97.9%
- Crystal form (XRPD) ([1]; Day 0): Crystal form A
- Total impurities ([1]; Day 0): 1.2%
- Content [1, 7]: 96.8%
- Crystal form (XRPD) [1, 7]: Crystal form A
- Total impurities [1, 7]: 1.2%
- Content [1, 8]: 98.8%
- Crystal form (XRPD) [1, 8]: Crystal form A
- Total impurities [1, 8]: 1.2%
- Content [1, 9]: 98.0%
- Crystal form (XRPD) [1, 9]: Crystal form A
- Total impurities [1, 9]: 1.3%
- Content [1, 10]: 97.0%
- Crystal form (XRPD) [1, 10]: Crystal form A
- Total impurities [1, 10]: 1.3%
- Content [1, 11]: 98.5%
- Crystal form (XRPD) [1, 11]: Crystal form A
- Total impurities [1, 11]: 1.1%
- Content [1, 12]: 98.2%
- Crystal form (XRPD) [1, 12]: Crystal form A
- Total impurities [1, 12]: 1.2%
- Content [1, 13]: 98.4%
- Crystal form (XRPD) [1, 13]: Crystal form A
- Total impurities [1, 13]: 1.2%
- Content [1, 14]: 97.7%
- Crystal form (XRPD) [1, 14]: Crystal form A
- Total impurities [1, 14]: 1.1%
- Content [1, 15]: 97.9%
- Crystal form (XRPD) [1, 15]: Crystal form A
- Total impurities [1, 15]: 1.2%
- Content [1, 16]: 98.3%
- Crystal form (XRPD) [1, 16]: Crystal form A
- Total impurities [1, 16]: 1.2%
- Content [1, 17]: 98.6%
- Crystal form (XRPD) [1, 17]: Crystal form A
- Total impurities [1, 17]: 1.2%
- Content [1, 18]: 97.6%
- Crystal form (XRPD) [1, 18]: Crystal form A
- Total impurities [1, 18]: 1.2%
- Maximum inhibition (Ba/F3-TEL-FLT1 (VEGFR1); 72 h): 99.34%
- Minimum inhibition (Ba/F3-TEL-FLT1 (VEGFR1); 72 h): −12.05%
- IC50 (Ba/F3-TEL-FLT1 (VEGFR1); Mus musculus, BaF3, 72 h, read-out: Relative IC50): 46 nM
